According to article PMC9533837 (Antiviral Research, 2003):
Converted amounts (≈) assume the structure as drawn. Read-outs that look alike come from different tables or passages of the source.

Columns and labels:
CPX Brighton [1] = test: organism not typed; type: cell-based, cowpox
[2] = system: VAR-YAM (1946 Japan Yamada isolate of VAR major); test: organism not typed; type: cell-based, variola major
[3] = system: VAR-BSH (1975 Bangladesh isolate of VAR major); test: organism not typed; type: cell-based, variola major
[4] = system: MPX Zaire (V79-1-005-Scab); test: organism not typed; type: cell-based, monkeypox
[5] = system: VAR-BSH (1975 Bangladesh isolate of VAR major); test: organism not typed; type: cell-based, variola major; remark: listed apart in the source
VAC = system: VAC; set-up: species or system mice; conditions: mouse, in vivo
[6] = system: MPX Zaire (V79-1-005-Scab); test: organism not typed; type: cell-based, monkeypox; remark: listed apart in the source
VAC Copenhagen [7] = test: microbe, parasite or virus in culture; type: cell-based, vaccinia virus
VAC Copenhagen [8] = test: microbe, parasite or virus in culture; type: cell-based, vaccinia virus; remark: listed apart in the source
[9] = system: VAR-GAR (1966 Brazil Garcia isolate of VAR minor); test: organism not typed; type: cell-based, variola minor
CPX = system: CPX; set-up: species or system mice; conditions: mouse, in vivo
[10] = system: VAR-GAR (1966 Brazil Garcia isolate of VAR minor); test: organism not typed; type: cell-based, variola minor; remark: listed apart in the source
[11] = system: VAR-YAM (1946 Japan Yamada isolate of VAR major); test: organism not typed; type: cell-based, variola major; remark: listed apart in the source
CPX Brighton [12] = test: organism not typed; type: cell-based, cowpox; remark: listed apart in the source

Row | Structure (SMILES) | Therapeutic index (TI) CPX LLC-MK2 (CPX Brighton [1]) | Therapeutic index (TI) VAR-YAM LLC-MK2 [2] | Therapeutic index (TI) VAR-BSH LLC-MK2 [3] | Therapeutic index (TI) MPX LLC-MK2 [4] | Therapeutic index (TI) VAR-BSH Vero [5] | protective effect on VAC-infected mice (VAC) | Therapeutic index (TI) MPX Vero [6] | Therapeutic index (TI) VAC Vero (VAC Copenhagen [7]) | Therapeutic index (TI) VAC LLC-MK2 (VAC Copenhagen [8]) | Therapeutic index (TI) VAR-GAR LLC-MK2 [9] | protective effect on CPX-infected mice (CPX) | Therapeutic index (TI) VAR-GAR Vero [10] | Therapeutic index (TI) VAR-YAM Vero [11] | Therapeutic index (TI) CPX Vero (CPX Brighton [12]) | other results
1 | Nc1nccc2c1ncn2[C@@H]1C[C@@H](CO)[C@H](O)[C@@H]1O [C-ca3-Ado, Carbocyclic 3-deazaadenosine] | 4.0 | 71.4 | 62.5 | 125 | 83.3 | modest protective effect | 250 | 83.3 | 29.4 | 22.7 | modest protective effect | 62.5 | 18.9 | 1.0 | IC50 CPX LLC-MK2 (CPX Brighton [1]): 25.2 µg/mL (≈ 95.4 µM); IC50 VAR-YAM LLC-MK2 [2]: 1.4 µg/mL (≈ 5.3 µM); IC50 VAR-BSH LLC-MK2 [3]: 1.6 µg/mL (≈ 6.05 µM); IC50 MPX LLC-MK2 [4]: 0.8 µg/mL (≈ 3.03 µM); IC50 VAR-BSH Vero [5]: 1.2 µg/mL (≈ 4.54 µM); IC50 MPX Vero [6]: 0.4 µg/mL (≈ 1.51 µM); IC50 VAC Vero (VAC Copenhagen [7]): 1.2 µg/mL (≈ 4.54 µM); IC50 VAC LLC-MK2 (VAC Copenhagen [8]): 3.4 µg/mL (≈ 12.9 µM); IC50 VAR-GAR LLC-MK2 [9]: 4.4 µg/mL (≈ 16.6 µM); Cytotoxicity TC50 LLC-MK2 (LLC-MK2 cells): >100 µg/mL; IC50 VAR-GAR Vero [10]: 1.6 µg/mL (≈ 6.05 µM); Cytotoxicity TC50 Vero (Vero cells): >100 µg/mL; IC50 VAR-YAM Vero [11]: 5.3 µg/mL (≈ 20.1 µM); IC50 CPX Vero (CPX Brighton [12]): >100 µg/mL
2 | Nc1nccc2c1ncn2C1C=C(CO)C(O)C1O (single isomer, unassigned; (-)) [C3-Npc A, (−)-9-[trans-2′-trans-3′-dihydroxy-4′-hydroxymethyl-cyclopent-4′-enyl]-3-deazaadenine] | 1.0 | 417 | 213 | 2000 | 3333 | modest protective effect | 10000 | 5000 | 2000 | 222 | modest protective effect | 2500 | 2500 | 1.0 | IC50 (CPX Brighton [1]; LLC-MK2, read-out: IC50 CPX LLC-MK2): > 100 µg/mL; IC50 ([2]; LLC-MK2, read-out: IC50 VAR-YAM LLC-MK2): 0.24 µg/mL (≈ 0.915 µM); IC50 ([3]; LLC-MK2, read-out: IC50 VAR-BSH LLC-MK2): 0.47 µg/mL (≈ 1.79 µM); IC50 ([4]; LLC-MK2, read-out: IC50 MPX LLC-MK2): 0.05 µg/mL (≈ 0.191 µM); IC50 ([5]; Vero, read-out: IC50 VAR-BSH Vero): 0.03 µg/mL (≈ 0.114 µM); IC50 ([6]; Vero, read-out: IC50 MPX Vero): 0.01 µg/mL (≈ 0.0381 µM); IC50 (VAC Copenhagen [7]; Orthopoxvirus vaccinia, Vero, read-out: IC50 VAC Vero): 0.02 µg/mL (≈ 0.0763 µM); IC50 (VAC Copenhagen [8]; Orthopoxvirus vaccinia, LLC-MK2, read-out: IC50 VAC LLC-MK2): 0.05 µg/mL (≈ 0.191 µM); IC50 ([9]; LLC-MK2, read-out: IC50 VAR-GAR LLC-MK2): 0.45 µg/mL (≈ 1.72 µM); Cytotoxicity TC50 LLC-MK2 (LLC-MK2 cells; rhesus monkey): >100 µg/mL; IC50 ([10]; Vero, read-out: IC50 VAR-GAR Vero): 0.04 µg/mL (≈ 0.153 µM); Cytotoxicity TC50 Vero (Vero cells; African green monkey): >100 µg/mL; IC50 ([11]; Vero, read-out: IC50 VAR-YAM Vero): 0.04 µg/mL (≈ 0.153 µM); IC50 (CPX Brighton [12]; Vero, read-out: IC50 CPX Vero): > 100 µg/mL
